{"source": "patent US20230002346A1", "about": "“NEW COMPOUNDS AND METHODS” (BenevolentAl Bio Limited, priority 2019, published 2023)", "target": "T1, hERG channel (Homo sapiens, UniProt Q12809)", "T1 construct": "expressed in transfected cells", "T1 sequence (Q12809 whole entry)": "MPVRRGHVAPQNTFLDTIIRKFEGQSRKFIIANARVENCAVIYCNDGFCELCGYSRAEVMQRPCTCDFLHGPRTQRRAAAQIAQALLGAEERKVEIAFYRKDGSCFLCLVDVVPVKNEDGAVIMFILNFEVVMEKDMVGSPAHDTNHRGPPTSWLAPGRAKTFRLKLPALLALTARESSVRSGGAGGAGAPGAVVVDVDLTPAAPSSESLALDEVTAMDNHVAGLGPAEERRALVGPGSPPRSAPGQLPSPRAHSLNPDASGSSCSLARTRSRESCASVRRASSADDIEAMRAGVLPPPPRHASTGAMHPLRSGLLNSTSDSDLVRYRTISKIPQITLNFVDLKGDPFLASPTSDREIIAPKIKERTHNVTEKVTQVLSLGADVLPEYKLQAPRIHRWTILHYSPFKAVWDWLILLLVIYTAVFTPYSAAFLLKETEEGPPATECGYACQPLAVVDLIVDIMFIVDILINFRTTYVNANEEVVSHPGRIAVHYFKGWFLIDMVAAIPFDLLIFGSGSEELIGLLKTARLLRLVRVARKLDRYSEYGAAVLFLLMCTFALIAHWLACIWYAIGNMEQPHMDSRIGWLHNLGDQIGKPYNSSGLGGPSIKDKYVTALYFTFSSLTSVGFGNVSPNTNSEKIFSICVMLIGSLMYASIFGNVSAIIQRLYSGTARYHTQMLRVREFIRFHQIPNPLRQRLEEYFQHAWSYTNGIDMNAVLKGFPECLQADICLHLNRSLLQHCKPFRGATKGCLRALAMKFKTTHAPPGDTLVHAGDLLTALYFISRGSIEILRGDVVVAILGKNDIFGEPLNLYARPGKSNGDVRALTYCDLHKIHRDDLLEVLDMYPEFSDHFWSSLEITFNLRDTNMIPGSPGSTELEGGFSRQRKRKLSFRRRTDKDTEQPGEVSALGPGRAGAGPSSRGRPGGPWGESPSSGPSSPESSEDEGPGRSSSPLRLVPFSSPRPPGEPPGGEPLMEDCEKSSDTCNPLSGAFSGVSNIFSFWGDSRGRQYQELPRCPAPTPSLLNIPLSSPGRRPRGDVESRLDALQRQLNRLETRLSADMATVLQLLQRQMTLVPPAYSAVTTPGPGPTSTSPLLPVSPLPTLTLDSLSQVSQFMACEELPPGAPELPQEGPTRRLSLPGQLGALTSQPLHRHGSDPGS", "assay": "hERG assay (QPatch automated patch clamp, CHO cells)", "assay_type": "cell-based", "conditions": "CHO cells expressing hERG, whole-cell patch clamp, 0.003 μM to 10 μM", "method_in_brief": "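Whole-cell QPatch recordings at room temperature on CHO cells stably expressing hERG, \"+40/−40\" protocol from −90 mV holding, 0.1 Hz. Eight cumulative concentrations (0.003–10 μM) on one cell after 0.1% DMSO vehicle; tail-current inhibition versus vehicle fitted to four-parameter logistic, Hill slopes 0.5–2.0 accepted; mean of N≥3 cells.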"}
{"compound": "O=C(Nc1ccc(OC(F)(F)Cl)cc1)c1ccc(=O)n(-c2ccccc2)c1", "note": "[Example 56, N-[4-[Chloro(difluoro)methoxy]phenyl]-6-oxo-1-phenyl-pyridine-3-carboxamide]", "values": [{"measurement": "IC50", "value": "> 10", "unit": "µM"}]}
